The test system of assay [1] is MKN45 cells. Put plainly: MKN45 cell proliferation assay (CellTiter-Glo). The class given is cell-based. The conditions noted are these: Homo sapiens, MKN-45, 72 h; MKN45 cell line; 3 days incubation; at least duplicate experiments; read-out: Prolif. IC50.
Assay [2] concerns the target T1, RON (Homo sapiens, UniProt Q04912).
T1 sequence (Q04912 913-1400): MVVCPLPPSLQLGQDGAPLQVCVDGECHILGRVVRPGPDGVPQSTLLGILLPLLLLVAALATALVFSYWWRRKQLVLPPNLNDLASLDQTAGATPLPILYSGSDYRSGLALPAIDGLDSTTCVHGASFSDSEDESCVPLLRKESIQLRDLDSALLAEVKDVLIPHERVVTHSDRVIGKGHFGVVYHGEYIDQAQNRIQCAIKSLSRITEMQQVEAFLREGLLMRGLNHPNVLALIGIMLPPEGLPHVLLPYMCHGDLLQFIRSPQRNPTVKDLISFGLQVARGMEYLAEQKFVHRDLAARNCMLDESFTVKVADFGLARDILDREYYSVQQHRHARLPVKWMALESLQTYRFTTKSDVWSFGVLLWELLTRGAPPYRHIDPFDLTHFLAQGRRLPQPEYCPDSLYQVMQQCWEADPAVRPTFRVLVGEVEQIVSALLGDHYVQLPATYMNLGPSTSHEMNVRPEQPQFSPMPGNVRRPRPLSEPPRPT
The assay can be described thus: sfRON cell mechanistic assay (HeLa), phosphorylated RON ELISA. The class given is cell-based. The note with it: HeLa cells transfected with sfRON; inhibition of phosphorylated RON; four hours incubation; at least duplicate experiments; read-out: sfRON mech IC50. In short, it runs like this: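 HeLa cells transiently transfected with sfRON plasmid, then exposed 4 h at 37 °C to a 6-point compound series (typically 10 μM to 3 nM, 0.5% DMSO). Phospho-RON (pY1238/1239) in lysates measured by sandwich ELISA with luminescence. IC50 from 4-parameter fit of percent-of-DMSO-control data, at least duplicate runs.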
Background: ELISA stands for enzyme-linked immunosorbent assay.

For the molecule `CNC(=O)[C@H]1CC[C@H](n2nc(C)c(-c3cnc4[nH]cc([C@H](C)c5c(OC)ccc(F)c5Cl)c4c3)c2C)CC1` [Example 24, trans-4-(4-{3-[(1S)-1-(2-Chloro-3-fluoro-6-methoxyphenyl)ethyl]-1H-pyrrolo[2,3-b]pyridin-5-yl}-3,5-dimethyl-1H-pyrazol-1-yl)-N-methylcyclohexanecarboxamide], the IC50 (as a rule, the concentration at which inhibition is half-maximal) in assay [1] is no more than 50 nM; in assay [2] it was 200 to 1000 nM.
In the same order, the values of `COc1ccc(F)c(Cl)c1[C@@H](C)c1c[nH]c2ncc(-c3cn([C@H]4CC[C@H](O)CC4)nc3C)cc12` [Example 28, trans-4-(4-{3-[(1S)-1-(2-Chloro-3-fluoro-6-methoxyphenyl)ethyl]-1H-pyrrolo[2,3-b]pyridin-5-yl}-3-methyl-1H-pyrazol-1-yl)cyclohexanol] are no more than 50 nM and no more than 200 nM.
In the case of `COc1ccc(F)c(Cl)c1[C@@H](C)c1c[nH]c2ncc(-c3cn([C@H]4CC[C@H](C(=O)N(C)C)CC4)nc3C)cc12` [Example 23, trans-4-(4-{3-[(1S)-1-(2-chloro-3-fluoro-6-methoxyphenyl)ethyl]-1H-pyrrolo[2,3-b]pyridin-5-yl}-3-methyl-1H-pyrazol-1-yl)-N,N-dimethylcyclohexanecarboxamide], the IC50 in assay [1] is no more than 50 nM; in assay [2] it was no more than 200 nM.

For the origin of these results see US8445510B2, “Fused bicyclic kinase inhibitors” (OSI Pharmaceuticals, LLC, priority 2011, dated 2013).
